# According to patent US10703746B2, “Mutant IDH1 inhibitors useful for treating cancer” (THE UNITED STATES OF AMERICA, AS REPRESENTED BY THE …, priority 2014, dated 2020):
# Columns and labels:
# [1] = molecular target: IDH1 R132H (Homo sapiens, UniProt O75874, R132H); experiment: IDH1 R132H enzymatic assay (NADPH depletion coupled to diaphorase/resazurin); type: biochemical
# [2] = molecular target: IDH1 R132C (Homo sapiens, UniProt O75874, R132C); experiment: IDH1 R132C enzymatic assay (NADPH depletion coupled to diaphorase/resazurin); type: biochemical
# IDH1 R132C, sequence (O75874 whole entry R132C): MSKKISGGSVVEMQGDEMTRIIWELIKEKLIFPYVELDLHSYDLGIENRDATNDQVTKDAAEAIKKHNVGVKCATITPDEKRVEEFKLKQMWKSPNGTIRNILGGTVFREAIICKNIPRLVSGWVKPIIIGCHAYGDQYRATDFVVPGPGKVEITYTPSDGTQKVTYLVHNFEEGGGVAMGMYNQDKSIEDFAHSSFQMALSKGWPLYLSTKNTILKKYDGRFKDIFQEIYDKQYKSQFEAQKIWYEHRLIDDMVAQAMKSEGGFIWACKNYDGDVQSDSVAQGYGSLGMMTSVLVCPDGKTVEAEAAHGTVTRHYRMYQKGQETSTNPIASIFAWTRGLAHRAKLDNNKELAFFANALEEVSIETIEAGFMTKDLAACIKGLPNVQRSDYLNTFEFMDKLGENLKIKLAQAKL
# In short: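 NADPH depletion, read via diaphorase/resazurin coupling, after adding substrate at 0.6 mM α-KG and 0.012 mM NADPH. Beforehand, 0.00032 mg/mL enzyme sat with compound 30 min at room temperature in pH 6.5 potassium phosphate buffer with MgCl2, glycerol and BSA.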
# [3] = IDH1 R132H enzymatic inhibition, IC50 class
# [4] = IDH1 R132C enzymatic inhibition, IC50 class
# [5] = enzymatic inhibition, IDH1 R132H
# [6] = enzymatic inhibition, IDH1 R132C
# IDH1 R132H, sequence (O75874 whole entry R132H): as the sequence (O75874 whole entry R132C) above, with C132H counted along it
SMILES,"IC50 [1, 3] [nM]","IC50 [2, 4] [nM]","IC50 [1, 5] [nM]","IC50 [2, 6] [nM]"
CCc1cccc(CC)c1-n1c(C=C(C)C)c(C(=O)N2CCNC3(CC3)C2)cc(-c2nc(-c3ccc(C(F)(F)F)cc3)cs2)c1=O [Compound 324],< 300,< 300,–,–
CCc1cccc(CC)c1-n1c(CC(C)C)c(C(=O)N2CCNCC2CO)cc(-c2nc(-c3ccc(Cl)cc3)cs2)c1=O (stereo not shown) [Compound 272],300 to 1000,< 300,–,–
CCc1cccc(CC)c1-n1c(C=C(C)C)c(C(=O)N2CCNCC2)cc(-c2nc(-c3ccc(Cl)cn3)cs2)c1=O [Compound 377],< 300,< 300,–,–
CCc1cccc(CC)c1-n1c(CC(C)C)c(C(=O)N2CCNC(=O)C2c2ccccc2)cc(-c2nc(-c3ccc(Cl)cc3)cs2)c1=O (stereo not shown) [Compound 155],300 to 1000,< 300,–,–
CCc1cccc(CC)c1-n1c(COC)c(C(=O)N2CCNCC2)cc(-c2nc(-c3ccc(Cl)cc3)cs2)c1=O [Compound 275],< 300,< 300,–,–
CCc1cccc(CC)c1-n1c(C=C(C)C)c(C(=O)N2CCN[C@H](C)C2)cc(-c2nc(-c3ccc(C(F)(F)F)cc3)cs2)c1=O [Compound 483],–,–,< 300,< 300
CCc1cccc(CC)c1-n1c(C=C(C)C)c(C(=O)N2CCNCC2C)cc(-c2nc(-c3ccc(Cl)cc3)cs2)c1=O (stereo not shown) [Compound 631],< 300,< 300,–,–
CCc1cccc(CC)c1-n1c(CC(C)C)c(C(=O)N2CCNC(C(=O)OC)C2)cc(-c2nc(-c3ccc(Cl)cc3)cs2)c1=O (stereo not shown) [Compound 117],1000 to 5000,< 300,–,–
CCc1cccc(CC)c1-n1c(C=C(C)C)c(C(=O)N2CCNC(C(N)=O)C2)cc(-c2nc(-c3ccc(Cl)cc3)cs2)c1=O (stereo not shown) [Compound 426],–,–,< 300,< 300
CCc1cccc(CC)c1-n1c(C=C(C)C)c(C(=O)N2CCNCC2C(=O)O)cc(-c2nc(-c3ccc(Cl)cc3)cs2)c1=O (stereo not shown) [Compound 410],–,–,< 300,< 300
CCc1cccc(CC)c1-n1c(C=C(C)C)c(C(=O)N2CCNCC2)cc(-c2ccn(-c3ccc(Cl)cc3)n2)c1=O [Compound 349],< 300,< 300,–,–
CCc1ncc(F)cc1-n1c(C=C(C)C)c(C(=O)N2CCNCC2)cc(-c2nc(-c3ccc(C(F)F)cc3)cs2)c1=O [Compound 524],–,–,< 300,< 300
CCc1cccc(CC)c1-n1c(C)c(C(=O)N2CCNCC2)c(O)c(-c2nc(-c3ccc(Cl)cc3)cs2)c1=O [Compound 535],–,–,300 to 1000,1000 to 5000
CCc1ncc(OC)cc1-n1c(C=C(C)C)c(C(=O)N2CCNCC2)cc(-c2nc(-c3ccc(C(F)(F)F)cc3)cs2)c1=O [Compound 636],< 300,< 300,–,–
CCc1cccc(CC)c1-n1c(C(CC)OC)c(C(=O)N2CCNCC2)cc(-c2nc(-c3ccc(Cl)cc3)cs2)c1=O (stereo not shown) [Compound 456],–,–,300 to 1000,300 to 1000
CCOc1ncc(C)cc1-n1c(C=C(C)C)c(C(=O)N2CCNCC2)cc(-c2nc(-c3ccc(C(F)(F)F)cc3)cs2)c1=O [Compound 587],–,–,< 300,< 300
CCc1cccc(CC)c1-n1c(CC(C)C)c(C(=O)N2CCNCC2)cc(-c2nc(-c3ccc(C(F)(F)F)cc3)cs2)c1=O [Compound 654],< 300,< 300,–,–
CC(C)=Cc1c(C(=O)N2CCNCC2)cc(-c2nc(-c3ccc(Cl)cc3)cs2)c(=O)n1-c1cc(Cl)cnc1OC(C)C [Compound 602],–,–,< 300,< 300
CCc1cccc(CC)c1-n1c(CC(C)C)c(C(=O)N2CCNCC2)cc(-c2nc(-c3ccc(Cl)cc3)c(Br)s2)c1=O [Compound 601],–,–,300 to 1000,< 300
CCc1cccc(CC)c1-n1c(C2CCNCC2)c(C(=O)N2CCNCC2)cc(-c2nc(-c3ccc(Cl)cc3)cs2)c1=O [Compound 670],5000 to 20000,> 20000,–,–
CCOc1ccc(-c2csc(-c3cc(C(=O)N4CCNCC4)c(C=C(C)C)n(-c4c(CC)cccc4CC)c3=O)n2)cc1 [Compound 598],–,–,< 300,< 300
CCOc1ncc(F)cc1-n1c(C=C(C)C)c(C(=O)N2CCNCC2)cc(-c2nc(-c3ccc(C(F)(F)F)nc3)cs2)c1=O [Compound 534],–,–,< 300,< 300
CCc1cccc(CC)c1-n1c(CC(C)C)c(C(=O)N2CCNCC2)cc(-c2nc(-c3ccc(OC)nc3)c(C)s2)c1=O [Compound 322],300 to 1000,300 to 1000,–,–
CCc1cccc(CC)c1-n1c(CCC(F)(F)F)c(C(=O)N2CCNCC2)cc(-c2nc(-c3ccc(Cl)cc3)cs2)c1=O [Compound 373],300 to 1000,300 to 1000,–,–

# Further lines, results first:
"IC50 [1, 3] [nM]","IC50 [2, 4] [nM]","IC50 [1, 5] [nM]","IC50 [2, 6] [nM]",SMILES
300 to 1000,300 to 1000,–,–,CC1(C)CC(=O)c2cc(-c3nc(-c4ccc(C(F)(F)F)cc4)cs3)c(=O)n(-c3ccccc3C(F)(F)F)c2C1 [Compound 85]
300 to 1000,300 to 1000,–,–,CCc1cccc(CC)c1-n1c2c(cc(-c3nc(-c4ccc(F)cc4)cs3)c1=O)C(=O)CC(C)(C)C2 [Compound 148]
1000 to 5000,1000 to 5000,–,–,CCc1cccc(CC)c1-n1c2c(cc(-c3nc(-c4ccccc4C)cs3)c1=O)C(=O)CC(C)(C)C2 [Compound 173]
> 20000,> 20000,–,–,CCc1cccc(CC)c1-n1c2c(cc(-c3nc(-c4cccc(C(F)(F)F)c4)cs3)c1=O)C(=O)CC(C)(C)C2 [Compound 228]
–,–,< 300,< 300,CCc1cccc(CC)c1-n1c(C2CC2)c(C(=O)N2CCNCC2)cc(-c2nc(-c3ccc(Cl)cc3)cs2)c1=O [Compound 502]
< 300,< 300,–,–,CCc1cccc(OC)c1-n1c(C=C(C)C)c(C(=O)N2CCNCC2)cc(-c2nc(-c3ccc(Cl)cc3)cs2)c1=O [Compound 642]
1000 to 5000,1000 to 5000,–,–,O=C1CCCc2c1cc(-c1nc(-c3ccc(Cl)cc3)cs1)c(=O)n2-c1ccccc1OCC(F)(F)F [Compound 343]
300 to 1000,300 to 1000,–,–,CCc1cccc(CC)c1-n1c(CC(C)C)c(CO)cc(-c2nc(-c3ccc(Cl)cc3)cs2)c1=O [Compound 391]
–,–,5000 to 20000,5000 to 20000,Cc1ccccc1Oc1nc(C)c(C(=O)N2CCNCC2)cc1-c1nc(-c2ccc(Cl)cc2)cs1 [Compound 462]
300 to 1000,300 to 1000,–,–,CCc1cccc(CC)c1-n1c(C)c(C(=O)N2CCNC(C(=O)O)C2)cc(-c2nc(-c3ccc(Cl)cc3)cs2)c1=O (stereo not shown) [Compound 198]
1000 to 5000,1000 to 5000,–,–,COc1cccc(OC)c1-n1c2c(cc(-c3nc(-c4ccc(Cl)cc4)cs3)c1=O)C(=O)CC(C)(C)C2 [Compound 59]
< 300,300 to 1000,–,–,CCc1cccc(CC)c1-n1c(CC(C)C)c(C(=O)NCCO)cc(-c2nc(-c3ccc(Cl)cc3)cs2)c1=O [Compound 4]
< 300,< 300,–,–,CCc1cccc(CC)c1-n1c(CCOC)c(C(=O)N2CCNCC2)cc(-c2nc(-c3ccc(Cl)cc3)cs2)c1=O [Compound 278]
1000 to 5000,300 to 1000,–,–,CC(C)Oc1ccccc1-n1c2c(cc(-c3nc(-c4ccc(Cl)cc4)cs3)c1=O)C(=O)CC(C)(C)C2 [Compound 130]
1000 to 5000,1000 to 5000,–,–,CCc1cccc(CC)c1-n1c(C)c(C(=O)N2CCCC(O)C2)cc(-c2nc(-c3ccc(Cl)cc3)cs2)c1=O (stereo not shown) [Compound 250]
< 300,300 to 1000,–,–,CCc1cccc(CC)c1-n1c(C)c(C(=O)N2CCNC(CO)C2)cc(-c2nc(-c3ccc(Cl)cc3)cs2)c1=O (stereo not shown) [Compound 106]
300 to 1000,< 300,–,–,CCc1cccc(CC)c1-n1c(CC(C)C)c(C(=O)NCC(O)c2ccccc2)cc(-c2nc(-c3ccc(Cl)cc3)cs2)c1=O (stereo not shown) [Compound 232]
300 to 1000,300 to 1000,–,–,CC1(C)CC(=O)c2cc(-c3nc(-c4ccc(Cl)cc4)cs3)c(=O)n(-c3ccccc3CC(F)(F)F)c2C1 [Compound 115]
1000 to 5000,1000 to 5000,–,–,CCc1cccc(CC)c1-n1c(C)c(C(=O)NCC(N)=O)cc(-c2nc(-c3ccc(Cl)cc3)cs2)c1=O [Compound 260]
5000 to 20000,1000 to 5000,–,–,CCc1cccc(CC)c1-n1c(-c2ccccc2)c(C#N)cc(-c2nc(-c3ccc(Cl)cc3)cs2)c1=O [Compound 170]
300 to 1000,< 300,–,–,CCc1cccc(CC)c1-n1c2c(cc(-c3nc(-c4ccc(C(F)(F)F)cc4)cs3)c1=O)C(=O)CC(C)(C)C2 [Compound 186]
< 300,< 300,–,–,CCc1cccc(CC)c1-n1c(C=C(C)C)c(C(=O)N2CCNC(=O)C2)cc(-c2nc(-c3ccc(Cl)cc3)cs2)c1=O [Compound 358]
1000 to 5000,1000 to 5000,–,–,CCc1cccc(CC)c1-n1c(C)c(C(=O)N2CCC(N)C2)cc(-c2nc(-c3ccc(Cl)cc3)cs2)c1=O (stereo not shown) [Compound 245]
5000 to 20000,5000 to 20000,–,–,CC1(C)CC(=O)c2cc(-c3nc(-c4ccc(Cl)cc4)cs3)c(=O)n(-c3ccccc3C(=O)O)c2C1 [Compound 227]
–,–,5000 to 20000,5000 to 20000,COc1cccc(CN2CCN(C)CC2)c1-n1c2c(cc(-c3nc(-c4ccc(Cl)cc4)cs3)c1=O)C(=O)CCC2 [Compound 411]
< 300,< 300,–,–,CCOc1ccc(F)cc1-n1c(C=C(C)C)c(C(=O)N2CCNCC2)cc(-c2nc(-c3ccc(Cl)cc3)cs2)c1=O [Compound 381]
300 to 1000,300 to 1000,–,–,CCc1cccc(CC)c1-n1c(C(C)C)c(C(=O)N2CCNC(=O)C2)cc(-c2nc(-c3ccc(Cl)cc3)cs2)c1=O [Compound 168]
–,–,< 300,< 300,CC(C)=Cc1c(C(=O)N2CCNCC2)cc(-c2nc(-c3ccc(Cl)cc3)cs2)c(=O)n1-c1ccccc1OCC(F)(F)F [Compound 589]
300 to 1000,< 300,–,–,CCc1cccc(CC)c1-n1c(CC(C)C)c(C(=O)N2CCNC(C)(C(=O)O)C2)cc(-c2nc(-c3ccc(Cl)cc3)cs2)c1=O (stereo not shown) [Compound 80]
